Measured values: ChEMBL document CHEMBL1121374, “Analgesic narcotic antagonists. 4. 7-Methyl-N-(cycloalkylmethyl)-3-hydroxymorphinan-6-ones and -isomorphinan-6-ones” (1980)
The source made the active and inactive calls. No cut-off for these calls is given here.

Legend:
Rattus norvegicus [1] = species: Rattus norvegicus; assay: Ratio of agonist potency to antagonist potency was determined; type: functional
Mus musculus [2] = assay: Compound was tested for analgesia in mouse writhing assay by subcutaneous administration short duration at 5 min; type: functional; conditions: sc
Rattus norvegicus [3] = assay: Antagonist activity in rat tail flick assay by intraperitoneal administration; type: functional
Mus musculus [4] = assay: Compound was tested for analgesia in mouse writhing assay by subcutaneous administration; type: functional
Rattus norvegicus [5] = assay: Antagonist activity in rat tail flick assay by subcutaneous administration; type: functional
Mus musculus [6] = assay: Compound was tested for analgesia in mouse writhing assay by subcutaneous administration; IA means inactive; type: functional, organism-based
Rattus norvegicus [7] = assay: Compound was tested for antagonist in rat tail flick assay by intraperitoneal administration at dose 25 umol/kg; IA means inactive; type: functional, organism-based
Rattus norvegicus [8] = assay: Compound was tested for antagonist in rat tail flick assay by subcutaneous administration at dose 33 umol/kg; IA means inactive; type: functional, organism-based
[9] = Rattus norvegicus, Tail, sc, read-out: ED50
[10] = Mus musculus, sc, read-out: ED50
[11] = Rattus norvegicus, Tail, ip, read-out: ED50

| Structure (SMILES) | Ratio (Rattus norvegicus [1]) | ED50 (Mus musculus [4]; [10]) [µmol/kg] | ED50 (Rattus norvegicus [3]; [11]) [µmol/kg] | other results |
| --- | --- | --- | --- | --- |
| C[C@@H]1C[C@@H]2C3Cc4ccc(O)cc4C2(CCN3CC2CC2)CC1=O (stereo in doubt; 12T a) | 1.5 | – | – | ED50 (Mus musculus [2]): 1.77 µmol/kg; ED50 (Rattus norvegicus [3]): 1.18 µM/kg |
| C[C@@H]1C[C@@H]2C3Cc4ccc(O)cc4C2(CCN3CC2CCC2)CC1=O (stereo in doubt; 13T a) | – | – | – | ED50 (Mus musculus [4]): 0.93 µM/kg; ED50 (Rattus norvegicus [3]): >24 µM/kg |
| CN1CC[C@]23c4c5ccc(O)c4O[C@H]2[C@@H](O)C=C[C@H]3[C@H]1C5 [MORPHINE] | – | – | – | ED50 (Rattus norvegicus [5]; [9]): 19.3 µmol/kg |
| C[C@@H]1C[C@@H]2C3Cc4ccc(O)cc4C2(CCN3C)CC1=O (stereo in doubt; 7T) | – | 0.75 | – | ED50 (Rattus norvegicus [5]; [9]): 1.33 µmol/kg |
| C=CCN1CC[C@]23c4c5ccc(O)c4O[C@H]2C(=O)CC[C@@]3(O)[C@H]1C5 [NALOXONE] | – | – | – | ED50 (Mus musculus [6]): inactive |
| COc1ccc2c(c1)C13CCN(C)C(C2)[C@H]1C[C@@H](C)C(=O)C3 (stereo in doubt; 6T a) [listing 1 of 2 here] | – | – | – | ED50 (Mus musculus [4]): 15.7 µM/kg |
| CC[C@@H]1[C@@H](C)C(=O)CC23CCN(CC4CC4)C(Cc4ccc(OC)cc42)[C@@H]13 (some centres undefined) | – | > 25 | > 25 | – |
| C[C@H]1[C@H](C)C(=O)CC23CCN(CC4CCC4)C(Cc4ccc(O)cc42)[C@H]13 (some centres undefined) | 0.4 | 2.21 | 5.66 | – |
| COc1ccc2c(c1)C13CCN(CC4CC4)C(C2)[C@@H]1C[C@H](C)C(=O)C3.Cl (some centres undefined) | 0.04 | – | – | ED50 (Mus musculus [4]): 1.6 µM/kg; ED50 (Rattus norvegicus [3]): 42.6 µM/kg |
| COc1ccc2c(c1)C13CCN(CC4CCC4)C(C2)[C@@H]1C[C@H](C)C(=O)C3 (some centres undefined) | – | – | – | ED50 (Rattus norvegicus [7]): inactive |
| C[C@@H]1C[C@@H]2C3Cc4ccc(O)cc4C2(CCN3CC2CC2)CC1=O (stereo in doubt; 12T) | 4 | 8.9 | 2.24 | – |
| CC[C@H]1[C@H](C)C(=O)CC23CCN(C)C(Cc4ccc(OC)cc42)[C@H]13 (some centres undefined) | – | 0.49 | – | ED50 (Rattus norvegicus [5]; [9]): 2.75 µmol/kg |
| C[C@@H]1[C@@H](C)C(=O)CC23CCN(CC4CCC4)C(Cc4ccc(O)cc42)[C@@H]13 (some centres undefined) | – | 0.79 | > 25 | – |
| CC[C@@H]1[C@@H](C)C(=O)CC23CCN(CC4CCC4)C(Cc4ccc(OC)cc42)[C@@H]13 (some centres undefined) | – | > 25 | > 25 | – |
| COc1ccc2c3c1O[C@H]1C(=O)CC[C@H]4[C@@H](C2)N(C)CC[C@]314 [HYDROCODONE] | – | 2.36 | – | ED50 (Rattus norvegicus [5]; [9]): 5.2 µmol/kg |
| COc1ccc2c(c1)C13CCN(CC4CCC4)C(C2)[C@@H]1C[C@H](C)C(=O)C3.Cl (some centres undefined) | – | – | > 25 | ED50 (Mus musculus [4]): 3.58 µM/kg |
| COc1ccc2c(c1)C13CCN(C)C(C2)[C@@H]1C[C@H](C)C(=O)C3 (stereo in doubt; 6C a) | – | – | – | ED50 (Mus musculus [4]): 0.5 µM/kg; ED50 (Rattus norvegicus [5]): 1.6 µM/kg |
| CC[C@@H]1[C@@H](C)C(=O)CC23CCN(CC4CCC4)C(Cc4ccc(O)cc42)[C@@H]13 (some centres undefined) | – | > 25 | > 25 | – |
| CC[C@H]1[C@H](C)C(=O)CC23CCN(CC4CC4)C(Cc4ccc(O)cc42)[C@H]13 (some centres undefined) | – | > 25 | 2.23 | – |
| C[C@@H]1[C@@H](C)C(=O)CC23CCN(CC4CC4)C(Cc4ccc(O)cc42)[C@@H]13 (some centres undefined) | 4.4 | 4.5 | 1.02 | – |
| CC(C)=CCN1CC[C@]2(C)c3cc(O)ccc3C[C@H]1[C@H]2C [(+)-PENTAZOCINE] | 0.36 | 12.9 | 36.4 | – |
| C[C@H]1[C@H](C)C(=O)CC23CCN(CC4CC4)C(Cc4ccc(O)cc42)[C@H]13 (some centres undefined) | 65 | 23 | 0.35 | – |
| CC[C@H]1[C@H](C)C(=O)CC23CCN(CC4CCC4)C(Cc4ccc(OC)cc42)[C@H]13 (some centres undefined) | – | 18.7 | > 24 | – |
| C[C@H]1[C@H]2Cc3ccc(O)cc3[C@]1(C)CCN2CC1CC1 [CYCLAZOCINE] | 0.5 | 0.41 | 0.81 | – |
| C[C@H]1C[C@H]2C3Cc4ccc(O)cc4C2(CCN3CC2CCC2)CC1=O (stereo in doubt; 13C a) | – | – | > 30 | ED50 (Mus musculus [4]): 0.35 µM/kg |
| COc1ccc2c(c1)C13CCN(C)C(C2)[C@H]1C[C@@H](C)C(=O)C3 (stereo in doubt; 6T a) [listing 2 of 2 here] | – | – | – | ED50 (Rattus norvegicus [8]): inactive |
| C[C@H]1[C@H](C)C(=O)CC23CCN(C)C(Cc4ccc(O)cc42)[C@H]13 (some centres undefined) | – | 0.4 | – | ED50 (Rattus norvegicus [5]; [9]): 12.4 µmol/kg |
| COc1ccc2c(c1)C13CCN(CC4CC4)C(C2)[C@H]1C[C@@H](C)C(=O)C3.Cl (some centres undefined) | – | – | – | ED50 (Mus musculus [4]): >40 µM/kg; ED50 (Rattus norvegicus [3]): 3.19 µM/kg |
| COc1ccc2c(c1)C13CCN(C)C(C2)[C@@H]1C[C@H](C)C(=O)C3 (stereo in doubt; 6C) | – | – | – | ED50 (Mus musculus [4]): 1.72 µM/kg; ED50 (Rattus norvegicus [5]; [9]): 2.32 µmol/kg |
| CC[C@H]1[C@H](C)C(=O)CC23CCN(CC4CCC4)C(Cc4ccc(O)cc42)[C@H]13 (some centres undefined) | 1.7 | 8.19 | 4.84 | – |
